“And” between values parts separate entries of the source, which are not always exact repeats. Identical values can stand only once.
Assays:
[1] = Solubility of complexes in isohexane at room temperature; type: physicochemical; settings: room temperature (20° C.-25° C.); for Solubility in isohexane: cocrystallized solvent included in formula weight; for Solubility in isohexane (wt %): cocrystallized solvent included in mass
Method: General considerations: Solubility studies were performed using complexes that were isolated as crystalline or microcrystalline solids. […] Complex 3, embodying the present technological advancement, was cocrystallized with 0.6 equivalents of isohexane. Complex 4, embodying the present technological advancement, was cocrystallized with 0.5 equivalents of isohexane. Solvents used were sparged with nitrogen (30-60 minutes) and dried over 3 angstrom molecular sieves. Unless stated otherwise all measurements were performed at ambient temperature (20° C.-25° C.).
General procedure: A tared vial was loaded with a small amount of the complex (actual mass recorded, typically 5-30 mg). Then a small stir bar (8 mm) was added. Solvent was then added and the mixture was stirred rapidly (1000 rpm). […] This process was repeated until either a clear solution was obtained (no visible solids or murkiness) or the vial was full. As the mixture approached homogeneity (i.e., few remaining solids observed) the volume of the solvent additions was kept small (<1 mL) to minimize the overshooting of the solvent required to achieve homogeneity. The stir bar was then removed and the mass of the mixture was measured. If a clear solution had formed then the solubility of the complex was calculated based on the mass of complex and the amount of solvent added to achieve a homogeneous solution. If the mixture remained heterogeneous (visible solids or murky), then the value reported is given as being “less than” the calculated value. Formulas used to calculate solubility are listed below. Cocrystallized solvent is included in the mass and formula weights of the complexes. The density of isohexane used in the calculations was 0.672 g/ml, and the density of the complex was assumed to be 1.0 g/ml.
Solubility (in wt %)=[100]*[(weight of complex)/(weight of solution)]
Solubility (in mM)=[10^6]*[(grams of complex)/(formula wt. of complex in g/mol)]/[(grams of solvent)/(density of solvent in g/mL)]

[2] = Propylene polymerization, catalyst activity
Text: Solutions of the pre-catalysts were made using toluene (ExxonMobil Chemical-anhydrous, stored under N2) (98%) or isohexane (ExxonMobil Chemical—polymerization grade, and purified as described below). Pre-catalyst solutions were typically 0.25 mmol/L.
Activation of the pre-catalysts was either by dimethylanilinium tetrakisperfluorophenylborate (Boulder Scientific or Albemarle Corp; Act ID=A) or (hydrogenated tallow alkyl)methylammonium tetrakis(pentafluorophenyl)borate supplied as a 10 wt % solution in methylcyclohexane (Boulder Scientific; Act ID=B). Activators were typically used as a 0.25 mmol/L solution in toluene or isohexane.
Tri-n-octylaluminum (TnOAl or TNOA, Neat, AkzoNobel) was also used as a scavenger prior to introduction of the activator and pre-catalyst into the reactor. TNOA was typically used as a 5 mmol/L solution in toluene or isohexane.
Polymerizations were conducted in an inert atmosphere (N2) drybox using autoclaves equipped with an external heater for temperature control, glass inserts (internal volume of 22.5 mL), septum inlets, regulated supply of nitrogen and propylene, and equipped with disposable PEEK mechanical stirrers (800 RPM). The autoclaves were prepared by purging with dry nitrogen at 110° C. or 115° C. for 5 hours and then at 25° C. for 5 hours.
The reactor was prepared as described above, then heated to 40° C., and then purged with propylene gas at atmospheric pressure. Toluene or isohexanes, liquid propylene (1.0 mL) and scavenger (TNOA, 0.5 μmol) were added via syringe. The reactor was then brought to process temperature (70° C. or 100° C.) while stirring at 800 RPM. The activator solution, followed by the pre-catalyst solution, were injected via syringe to the reactor at process conditions. Reactor temperature was monitored and typically maintained within +/−1° C. Polymerizations were halted by addition of approximately 50 psi compressed dry air gas mixture to the autoclaves for approximately 30 seconds. The polymerizations were quenched based on a predetermined pressure loss (maximum quench value) or for a maximum of 30 minutes. The reactors were cooled and vented. The polymers were isolated after the solvent was removed in-vacuo. The actual quench time (s) is reported as quench time (s). Yields reported include total weight of polymer and residual catalyst. […] Propylene homopolymerization examples are reported in Table 2 with additional characterization in Table 3.
Polymerization results are collected in Tables 2. “Ex #” stands for example number. Example numbers starting with a “C” are comparative examples. “Cat ID” identifies the pre-catalyst used in the experiment. Corresponding numbers identifying the pre-catalyst (also referred to as pre-catalyst, catalyst, complex or compound) are located in the synthetic experimental section. T (° C.) is the polymerization temperature which was typically maintained within +/−1° C. “Yield” is polymer yield, and is not corrected for catalyst residue. “Quench time (s)” is the actual duration of the polymerization run in seconds. For propylene homopolymerization runs, quench value indicates the maximum set pressure loss (conversion) of propylene during the polymerization. Activity is reported at grams polymer per mmol of catalyst per hour.
Activator A is N,N-dimethylanilinium tetrakis(pentafluorophenyl)borate activator and activator B is (hydrogenated tallow alkyl)methylammonium tetrakis(pentafluorophenyl)borate. When activator A was used, both the pre-catalyst and activator solutions were in toluene. When activator B was used, both pre-catalyst and activator solutions were in isohexane. Small amounts of methylcyclohexane (MCH) result from activator B being supplied by the manufacturer as a 10 wt % solution in methylcyclohexane.

[3] = Activator B ((hydrogenated tallow alkyl)methylammonium tetrakis(pentafluorophenyl)borate), T 70 °C, solutions in isohexane, no toluene
[4] = Activator B ((hydrogenated tallow alkyl)methylammonium tetrakis(pentafluorophenyl)borate), T 100 °C, solutions in isohexane, no toluene

Compound	Solubility in isohexane [1] [mM]	Solubility in isohexane (wt %) [1] [wt %]	Activity (g P/mmol cat · hr) [2, 3]	Activity (g P/mmol cat · hr) [2, 4]	Activity (g P/mmol cat · hr) ([2]; Activator A (N,N-dimethylanilinium tetrakis(pentafluorophenyl)borate), T 100 °C, catalyst and activator solutions in toluene)
CCCCOc1ccc2c(c1)-c1cc(C)cc(C34CC5CC(CC(C5)C3)C4)c1[O][Zr]([CH3])([CH3])[O]c1c(cc(C)cc1C13CC4CC(CC(C4)C1)C3)-c1cc(OCCCC)ccc1-c1cccc-2n1 [Complex 3]	1.10	0.168			
dimethylzirconium[2′,2′″-(pyridine-2,6-diyl)bis(3-adamantan-1-yl)-5-(tert-butyl)-[1,1′-biphenyl]-2-olate)] [Complex 2, reference compound]			2,069,268 g P/mmol cat · hr and 4,201,200 g P/mmol cat · hr and 3,074,182 g P/mmol cat · hr	2,345,000 g P/mmol cat · hr and 2,682,545 g P/mmol cat · hr and 2,225,032 g P/mmol cat · hr	
CCCCOc1ccc2c(c1)-c1cc(C(C)(C)C)cc(C34CC5CC(CC(C5)C3)C4)c1[O][Zr]([CH3])([CH3])[O]c1c(cc(C(C)(C)C)cc1C13CC4CC(CC(C4)C1)C3)-c1cc(OCCCC)ccc1-c1cccc-2n1 [Complex 4]	15.7	2.55		2,448,000 g P/mmol cat · hr and 2,638,800 g P/mmol cat · hr and 1,007,059 g P/mmol cat · hr	
CCCCCCCCOc1ccc2c(c1)-c1cc(C(C)(C)C)cc(C34CC5CC(CC(C5)C3)C4)c1[O][Zr]([CH3])([CH3])[O]c1c(cc(C(C)(C)C)cc1C13CC4CC(CC(C4)C1)C3)-c1cc(OCCCCCCCC)ccc1-c1cccc-2n1 [Complex 5]			6,656,571 g P/mmol cat · hr and 5,844,800 g P/mmol cat · hr and 5,664,000 g P/mmol cat · hr	2,700,444 g P/mmol cat · hr and 1,772,923 g P/mmol cat · hr and 2,571,840 g P/mmol cat · hr	3,376,421 g P/mmol cat · hr and 2,318,545 g P/mmol cat · hr and 2,591,040 g P/mmol cat · hr
CCCCCCCCCCCCOc1ccc2c(c1)-c1cc(C(C)(C)C)cc(C34CC5CC(CC(C5)C3)C4)c1[O][Zr]([CH3])([CH3])[O]c1c(cc(C(C)(C)C)cc1C13CC4CC(CC(C4)C1)C3)-c1cc(OCCCCCCCCCCCC)ccc1-c1cccc-2n1 [Complex 6]			1,713,412 g P/mmol cat · hr and 1,940,093 g P/mmol cat · hr and 1,864,216 g P/mmol cat · hr		

From patent US20250353867A1, “Substituted Pyridine-2,6-Bis(Phenylenephenolate) Complexes with Enhanced Solubility that are Useful as Catalyst Components for Olefin Polymerization” (EXXONMOBIL CHEMICAL PATENTS INC., priority 2022, published 2025)
